Assay [1] concerns TBK1-mediated phosphorylation of IRF7. Description: In-situ TBK1-mediated phosphorylation of IRF7 in HEK293T cells transfected with IRF7 and TBK1 (Western blot). The format is cell-based. The procedure: HEK293T cells were cotransfected in a 10-cm dish with IRF3 and IKKε expression plasmids using Lipofectamine 2000 (Invitrogen, Carlsbad, Calif.). The following day, cells were replated at 20,000 per well in 96-well plates and treated with test compounds (compounds according to Formula I) for 20 hours. Cell lysates were prepared and analyzed using an ELISA for phospho-Ser396 (anti-IRF3 capture antibody, Santa Cruz Biotechnology, Inc., Santa Cruz, Calif.; anti-p-Ser396 IRF3 detection antibody, Cell Signaling, Danvers, Mass.). pIRF3 levels in compound treated cells were normalized to DMSO treated cells (no compound). Cell viability was assayed in a parallel set of plates to monitor cytotoxic effects of the test compounds (CellTiter-Glo, Promega, Inc., Madison, Wis.). TBK1 activity was tested by Western blotting using a phospho-specific IRF7 antibody. Similar to above, HEK293T cells were transfected with IRF7 and TBK1 expression plasmids. Cells were seeded in 12-well plates at 150,000 per well and treated overnight with test compounds. Protein lysates were prepared and processed for Western blotting followed by detection using a phosphor-Ser477/Ser479 IRF7 antibody (BD Biosciences, San Jose, Calif.)

A further assay deals with T1, TBK1 (Homo sapiens, UniProt Q9UHD2).
T1 construct: His-tag; made in house; host or cells: Sf9 insect cells
T1 sequence (Q9UHD2 1-729): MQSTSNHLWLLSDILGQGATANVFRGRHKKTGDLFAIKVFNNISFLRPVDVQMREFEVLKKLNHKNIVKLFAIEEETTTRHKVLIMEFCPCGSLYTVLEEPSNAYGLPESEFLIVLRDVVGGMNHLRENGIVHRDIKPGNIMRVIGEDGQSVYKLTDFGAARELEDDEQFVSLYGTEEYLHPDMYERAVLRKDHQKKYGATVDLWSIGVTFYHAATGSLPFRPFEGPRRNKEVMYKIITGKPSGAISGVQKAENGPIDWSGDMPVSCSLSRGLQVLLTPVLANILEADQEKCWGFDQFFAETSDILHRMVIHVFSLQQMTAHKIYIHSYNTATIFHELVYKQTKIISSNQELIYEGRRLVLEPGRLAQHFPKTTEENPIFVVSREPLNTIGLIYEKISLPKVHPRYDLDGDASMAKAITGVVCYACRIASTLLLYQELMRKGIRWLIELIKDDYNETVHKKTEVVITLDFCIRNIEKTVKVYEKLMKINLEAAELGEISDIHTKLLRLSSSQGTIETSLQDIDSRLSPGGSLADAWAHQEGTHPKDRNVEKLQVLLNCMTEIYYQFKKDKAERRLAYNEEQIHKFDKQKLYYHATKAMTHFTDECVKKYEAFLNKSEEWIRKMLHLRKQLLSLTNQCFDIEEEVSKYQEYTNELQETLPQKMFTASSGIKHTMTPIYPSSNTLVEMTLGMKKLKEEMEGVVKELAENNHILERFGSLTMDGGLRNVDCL
Description: In-vitro TBK1 kinase assay ([γ33]ATP filter-plate). Format: biochemical. To be noted: text bins; read-out: IC50 for inhibition of the kinase activity of TBK1. Put shortly:
(§1)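 Phosphorylation of casein or myelin basic protein was counted by P-81 filter capture after 30-45 min reactions stopped with phosphoric acid, with counts normalized to DMSO after background subtraction. ATP was twice Km: 60 μM for TBK1 and 32 μM for IKKε, plus [γ33]ATP. Sf9-expressed His-tag enzymes were used at normal/sensitized levels of 0.1/0.02 μg/ml (TBK1) and 0.1/0.015 μg/ml (IKKε).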

Another assay addresses T2, IKKε (Homo sapiens, UniProt Q14164).
T2 construct: His-tag; made in house; host or cells: Sf9 insect cells
T2 sequence (Q14164 1-716): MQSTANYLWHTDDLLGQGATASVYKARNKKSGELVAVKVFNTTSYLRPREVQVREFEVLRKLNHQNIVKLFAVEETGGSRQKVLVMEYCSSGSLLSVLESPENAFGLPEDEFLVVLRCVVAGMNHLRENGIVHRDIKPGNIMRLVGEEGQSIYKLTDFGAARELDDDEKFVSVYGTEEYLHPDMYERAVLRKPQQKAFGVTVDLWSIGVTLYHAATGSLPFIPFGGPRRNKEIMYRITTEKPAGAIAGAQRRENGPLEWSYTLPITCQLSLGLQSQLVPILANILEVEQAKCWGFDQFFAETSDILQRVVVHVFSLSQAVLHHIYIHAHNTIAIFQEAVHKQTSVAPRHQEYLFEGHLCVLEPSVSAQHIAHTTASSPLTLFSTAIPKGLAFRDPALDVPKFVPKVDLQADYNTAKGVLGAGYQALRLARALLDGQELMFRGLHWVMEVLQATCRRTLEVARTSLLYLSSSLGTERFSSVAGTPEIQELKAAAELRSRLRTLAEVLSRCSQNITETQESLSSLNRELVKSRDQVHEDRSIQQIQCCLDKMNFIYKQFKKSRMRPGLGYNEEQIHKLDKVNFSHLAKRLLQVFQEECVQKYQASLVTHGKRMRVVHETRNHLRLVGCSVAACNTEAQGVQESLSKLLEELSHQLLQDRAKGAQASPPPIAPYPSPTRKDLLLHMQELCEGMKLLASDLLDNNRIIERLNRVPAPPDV
Description: In-vitro IKKε kinase assay ([γ33]ATP filter-plate). The settings on record: text bins; read-out: IC50 for inhibition of the kinase activity of IKKε. The format is biochemical. Put shortly:
as §1

Here are results for one molecule from patent US20150352108A1, “AMINO-PYRIMIDINE COMPOUNDS AS INHIBITORS OF TBK1 AND/OR IKK EPSILON” (Alzheimer's Institute of America, priority 2009, published 2015).

In the case of `N#Cc1cc(-c2ccnc(Nc3ccc(N4CCOCC4)cc3)n2)ccc1OC1CCOCC1` [Example 5, 5-(2-{[4-(Morpholin-4-yl)phenyl]amino}pyrimidin-4-yl)-2-(tetrahydro-2H-pyran-4-yloxy)benzaonitrile], the “inhibition of TBK1-mediated phosphorylation of IRF7” value in assay [1] was “inhibit”. For the same molecule, the half-inhibitory concentration (IC50) on TBK1 is below 10 nM; at IKKε it was below 5 nM.
